Entries after “also recorded” stand apart in the source; their conditions may differ.
Assays:
[1] = system: ClpP–αSyn interaction; assay: Co-immunoprecipitation of ClpP with αSyn constructs in HEK293T cell lysates; format: cell-based; details: HEK293T lysates
Procedure: Myc-tagged WT- and A53T- αSyn, Myc-tagged ClpP, and Flag-tagged WT- and S153A- ClpP plasmids were self-constructed as previously described (Ref). To construct truncated-αSyn plasmids, pcDNA3.1(-) was digested with BsteII and XbaI, and ΔN-, ΔC- and ΔNAC-αSyn was PCR-amplified using self-designed primers and inserted into the plasmid backbone. Cells were transfected with TransIT-2020 (Mirus Bio, LLC) following the manufacturer’s protocol.
Cells or tissues were lysed in total lysis buffer (50mM Tris-HCl, pH 7.5, 150mM NaCl, 1% Triton X-100, and protease inhibitor). Total protein lysates (800 µg) were incubated with the indicated antibodies overnight at 4 °C followed by the addition of protein A/G beads (sc-2003, Santa Cruz) for 2 h at 4 °C. Various recombinant αSyn and Clpp (500 ng) were incubated in in vitro interaction buffer (20mM Tris-HCl pH 7.5, 100mM KCl, 2mM MgCl2 and 0.1% Triton-X100) for 30 min at room temperature, and then incubated with indicated antibodies overnight at 4 °C followed by the addition of protein A/G beads for 2 h at 4 °C. The beads with immuno-precipitates were pulled down at 4000 g and washed four times with total lysis buffer/in vitro interaction buffer in the presence of 0.1% Triton X-100 and were analyzed by western blot analysis.
Shown are representative blots of 3 independent experiments. Quantification of the ratio of αSyn over ClpP (pull-down) (n = 4, two-tailed Student’s t test, data are mean ± SEM).

[2] = system: αSyn oligomerization (VN/VC-αSyn), SH-SY5Y cells; assay: BiFC split-Venus αSyn oligomerization in SH-SY5Y cells; format: cell-based
Source text: To construct truncated-αSyn plasmids, pcDNA3.1(-) was digested with BsteII and XbaI, and ΔN-, ΔC- and ΔNAC-αSyn was PCR-amplified using self-designed primers and inserted into the plasmid backbone. Cells were transfected with TransIT-2020 (Mirus Bio, LLC) following the manufacturer’s protocol.
The bimolecular fluorescence was examined 24-hour after transfection (n = 3, one-way ANOVA with Tukey’s post-hoc test, scale bar = 30 μm). (D) Quantification of the concentration (ng/ml) of extracellular αSyn monomer and oligomer, and intracellular αSyn oligomer in Tet-inducible SH-SY5Y cells that were pre-treated with TAT or CS2 peptide 30-minute before adding doxycycline (Dox) to induce αSyn expression. The concentration of αSyn species was determined by ELISA (n = 4, one-way ANOVA with Tukey’s post-hoc test; data are mean ± SEM). (E) Representative images of Mito-SOX staining in SH-SY5Y cells that were pre-treated with TAT or CS2 peptide and transfected with split Venus-αSyn vectors. Mitochondrial ROS production was determined by Mito-SOX staining after 24-hour transfection (n = 4, two-tailed Student’s t test, scale bar = 30 μm).
The bimolecular fluorescence was examined 24-hour after the transfection and quantitated (n = 14 areas/group, one-way ANOVA with Tukey’s post-hoc test, data are mean ± SEM).

[3] = system: mThy1-hSNCA mice; assay: Open-field test in mThy1-hSNCA mice; format: in vivo, mouse; details: 3 mg/kg/day s.c.; age of 8-month; n = 12-15 mice/group; vs TAT
Procedure: C57BL/6 N-Tg (Thy1-SNCA)15Mjff/J (JAX: 017682) breeders (C57Bl/6NJ genetic background) were purchased from Jackson Laboratories. The mice were mated, bred, and genotyped in the animal facility of Case Western Reserve University. All mice were maintained at a 12-hour light/dark cycle (on 6 am, off 6 pm). All randomization and peptide treatments in mThy1-hSNCA mice were prepared by an experimenter not associated with the behavioral and neuropathology analysis. Only male mice were used in the study. mThy1-hSNCA transgenic mice and their age-matched WT littermates were implanted with a 28-day subcutaneous osmotic pump (Alzet, Cupertino CA, Model 2004) containing either TAT control peptide or CS2 peptide, which delivered the peptides at indicated rate (1 or 3 or 10 mg/kg/day). The pump was replaced once every four weeks. All mice were sacrificed at age of 10-month for neuropathology assessment.
The locomotor activity of all experimental mice was assessed in an open field chamber at 8-month-old. Briefly, the mice were placed in the center of an activity chamber (Omnitech Electronics) and allowed to explore the chamber while being tracked using an automated infrared tracking system (Vertax, Omnitech Electronics). A 24-hour locomotor activity analysis was performed. Both horizontal and vertical activity/movements were recorded.

## CC(C)[C@H](NC(=O)CNC(=O)CNC(=O)CCCCCNC(=O)[C@H](CCCNC(=N)N)NC(=O)[C@H](CCCNC(=N)N)NC(=O)[C@H](CCCNC(=N)N)NC(=O)[C@H](CCC(N)=O)NC(=O)[C@H](CCCNC(=N)N)NC(=O)[C@H](CCCNC(=N)N)NC(=O)[C@H](CCCCN)NC(=O)[C@H](CCCCN)NC(=O)[C@H](CCCNC(=N)N)NC(=O)CNC(=O)[C@@H](N)Cc1ccc(O)cc1)C(=O)N[C@H](C(=O)N[C@H](C(=O)N[C@@H](C)C(=O)O)[C@@H](C)O)C(C)C [CS2, TAT-C6-GGVVTA]
[1]; Flag-ClpP + Myc-ΔC-αSyn
  ClpP binding to ΔC-αSyn: abolished
[1]; Flag-ClpP + Myc-ΔN-αSyn
  ClpP binding to ΔN-αSyn: abolished
[1]; WT αSyn, CS2: 24-hour treatment
  ClpP binding to WT-αSyn: abolished
[2]; ClpPsh SH-SY5Y, effect of reducing αSyn oligomerization, n = 14 areas/group
  αSyn oligomerization, ClpP-deficient cells: no protective effect; also recorded: not observed in ClpP-deficient cells
[2]; SH-SY5Y expressing VN/VC-αSyn, 24-hour after transfection
  BiFC signal / αSyn oligomerization: significantly reduced BiFC signal intensity
[2]; SH-SY5Y expressing VN/VC-αSyn, pretreatment, 24-hour after transfection, n = 3, read-out: IC50, BiFC αSyn oligomer formation
  IC50: ~2.5 µM
[3]
  locomotor activity, open field: ameliorated locomotor activity

Source: paper PMC12751141, “Disrupting α-Synuclein–ClpP interaction restores mitochondrial function and attenuates neuropathology in Parkinson’s disease models” (Molecular Neurodegeneration, 2025)
